Test results reported in patent publication US5273986A, “Cycloalkylthiazoles” (Hoffmann-La Roche Inc., priority 1992, dated 1993).
Read-outs that look alike come from different tables or passages of the source.

What was measured:
LTD4 receptor = molecular target: T1, LTD4 receptor (Cavia porcellus, UniProt Q2NNR5); assay: LTD4 receptor ligand binding assay (inhibition of [3H]LTD4 specific binding, guinea pig lung membranes); conditions: 20° C., 30 min
T1 construct: A lung homogenate was prepared from guinea pig lung membranes; from tissue; host or cells: guinea pig lung membranes
T1 sequence (Q2NNR5 1-340): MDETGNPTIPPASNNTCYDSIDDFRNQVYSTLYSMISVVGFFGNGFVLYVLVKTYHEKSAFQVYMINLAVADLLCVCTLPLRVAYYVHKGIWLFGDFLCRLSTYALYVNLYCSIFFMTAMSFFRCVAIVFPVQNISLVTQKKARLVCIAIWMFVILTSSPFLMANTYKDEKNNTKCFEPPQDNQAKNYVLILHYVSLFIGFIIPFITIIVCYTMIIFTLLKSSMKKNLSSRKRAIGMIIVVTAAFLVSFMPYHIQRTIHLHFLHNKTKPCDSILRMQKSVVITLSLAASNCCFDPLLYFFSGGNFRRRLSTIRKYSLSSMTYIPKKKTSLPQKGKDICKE
Description: A lung homogenate was prepared from guinea pig lung membranes and was resuspended in buffer containing 10 mM Tris.HCl (pH 7.5) (Hogaboom et al., Hogaboom, G. K., et al: Peptidoleukotrienes: distinct receptors for leukotriene C4 and D4 in the guinea pig lung. Biochem. Biophys. Res. Commun. 116: 1136-1143, 1983). Optimum assay conditions were determined with an assay mixture containing: 10 mM Tris.HCl (pH 7.5); 0.1% bovine serum albumin (BSA); 1 mM glycine; 1 mM cysteine; 3.5 nM [^3 H]LTD4 and the membrane preparation ([…] protein) in a final volume of […]. The incubation was carried out at 20° C. for 30 minutes. At 20° C., binding increased linearly with protein concentration, reached equilibrium in 20 minutes, was saturable, and was reversible upon addition of 1 mM unlabelled LTD4. Separation of bound from free [^3 H]LTD4 as performed by rapid filtration on GF/C glass fiber filters (Whatman International Ltd., Maidstone, England) and washing with two 4-ml aliquots of Tyrode solution (0.9 g/100 ml NaCl; 0.02 g/100 ml KCl; 0.02 g/100 ml CaCl2; 0.01 g/100 ml MgCl2; 0.1 g/100 ml glucose; 0.1 g/100 ml NaHCO3; 0.005 g/100 ml NaH2 PO4) containing 0.1% BSA. Radioactivity remaining on the filters was measured in 10 ml of Aquasol. Specific binding, was defined as that displaced by 1 mM unlabelled LTD4, and was 95% of total binding.
The inhibition of [^3 H]LTD4 specific binding by an antagonist is related to the LTD4 content of that sample by regression analysis from a "standard curve" of the inhibition of [^3 H]LTD4 specific binding by nonlabeled LTD4. The median inhibitory concentration (IC50 value) was determined by linear regression of log concentration-response curves generated by at least 3 concentrations that caused statistically significant inhibition between 10 and 90%. Results are expressed as mean±S. E. M. (standard error of the mean) of n independent experiments (separate receptor batches) conducted in duplicates.

[1] = tested on: LTD4-induced bronchoconstriction; assay: Antagonism of LTD4-induced bronchoconstriction in guinea pigs; assay type: in vivo, guinea pig (male, Hartley strain); conditions: for ED50 / inhibition in vivo at 1 mg/kg: Cavia porcellus; for inhibition in vivo at 1 mg/kg: read-out: percent inhibition at 1 mg/kg p.o., LTD4-induced bronchoconstriction (ID50 not determined)
Description: Male guinea pigs (Hartley strain, Charles River) weighing 400-600 g were anesthetized with urethane (2 g/kg) intraperitoneally, and a polyethylene cannula was inserted into the jugular vein for intravenous drug administration. Tracheal pressure (cm of H2 O) was recorded from a Statham pressure transducer (P 32 AA). Propranolol was administered 5 minutes prior to challenge with LTD4. Two minutes later spontaneous breathing was arrested with succinylcholine chloride (1.2 mg/kg) administered intravenously, and the animals were ventilated with a Harvard (Model 680) small animal respirator set at 40 breaths/min and a 4.0 cc stroke volume. Control vehicle (DMSO) or test compound was administered through the cannula into the jugular vein 1 minute before the animals were challenged with a maximum constrictory dose of LTD4 ([…] I.V.) given intravenously. The change in tracheal pressure was averaged for control and drug-treated animals and percent inhibition was calculated. For determination of oral activity, animals were dosed with test compound or vehicle (PEG400) two hours prior to challenge with LTD4 ([…], i.v.).
The relative potency of test compounds administered by the intravenous and oral route was determined by administering increasing doses of test compound at a fixed pretreatment time. The median inhibitory dose (ID50 value) was determined by linear regression of log dose-responsecurves generated by at least 3 doses that caused statistically significant inhibition between 10 and 90%. The correlation coefficient for the regression line was always greater than 0.95. For determination of the time-course of inhibition for various compounds, the time between administration of compound and challenge with LTD4 was varied. Durations of action were defined as the time for inhibitory activity to decrease to 50%.

[2] = iv, 1 min, I.V., compound 1 minute before LTD4 challenge, read-out: ID50 I.V., LTD4-induced bronchoconstriction
[3] = po, 2 h, p.o., compound two hours prior to LTD4 challenge, read-out: ID50 p.o., LTD4-induced bronchoconstriction
[4] = po, 2 h, p.o., 1 mg/kg, compound two hours prior to LTD4 challenge

Structure (SMILES) | IC50 (LTD4 receptor) | ED50 [1, 2] | ED50 [1, 3] | inhibition in vivo at 1 mg/kg [1, 4] | percent inhibition at 1 mg/kg I.V., LTD4-induced bronchoconstriction (ID50 not determined) ([1]; I.V., 1 mg/kg, compound 1 minute before LTD4 challenge)
O=C(Cc1ccccc1C(=O)O)Nc1cccc(/C=C/c2nc(C3CC3)cs2)c1 [Example 2, (E)-2-[2-[3-[2-[4-(Cyclopropyl)-2-thiazolyl]ethenyl]phenylamino]-2-oxoethyl]benzoic acid] | 3 nM | 0.01 mg/kg | 0.22 mg/kg |  | 
O=C(Cc1ccccc1C(=O)O)Nc1cccc(/C=C/c2nc(C3CCC3)cs2)c1 [Example 3, (E)-2-[2-[3-[2-[4-(Cyclobutyl)-2-thiazolyl]ethenyl]phenylamino]-2-oxoethyl]benzoic acid] | 3 nM | 0.01 mg/kg | 0.22 mg/kg |  | 
O=C(O)Cc1ccccc1CC(=O)Nc1cccc(/C=C/c2nc(C3CCC3)cs2)c1 [Example 13, (E)-2-[2-[3-[2-[4-(cyclobutyl)-2-thiazolyl]ethenyl]phenylamino]-2-oxoethyl]benzeneacetic acid] | 1000 nM | 0.01 mg/kg | 0.78 mg/kg |  | 
CC(C)c1csc(/C=C/c2cccc(NC(=O)Cc3ccccc3CC(=O)O)c2)n1 [Example 14, (E)-2-[2-[3-[2-[4-(1-Methylethyl)-2-thiazolyl]ethenyl]phenylamino]-2-oxoethyl]benzene acetic acid] | 1000 nM | 0.05 mg/kg |  | 41 ± 8% | 
CC(C)c1csc(/C=C/c2cccc(NC(=O)Cc3cccc(CC(=O)O)c3)c2)n1 [Example 15, (E)-3-[2-[3-[2-[4-(1-Methylethyl)-2-thiazolyl]ethenyl]phenylamino]-2-oxoethyl]phenylacetic acid] | 1000 nM |  |  |  | 40 ± 7%
CC(C)c1csc(/C=C/c2cc(NC(=O)Cc3ccccc3C(=O)O)ccc2Cl)n1 [Example 17e, (E)-2-[2-[4-Chloro-3-[2-[4-(1-methylethyl)-2-thiazolyl]ethenyl]phenylamino]-2-oxoethyl]benzoic acid] | 900 nM | 0.28 mg/kg |  | 26 ± 7% | 
